Assay results as given in US20040186085A1, “Composition containing a steroid and a glycol” (priority 2001, published 2004).

Legend:
[1] = Solubility of DHEA at ambient temperature in different solvents (HPLC of supernatant); format: physicochemical; conditions: ambient temperature (25° C.), after 24 hours
Protocol: The solubility of DHEA was evaluated at ambient temperature in different solvents. For this purpose the DHEA was dispersed in excess in the solvent in question, which had been brought to 60° C. beforehand. This temperature was maintained for one hour, with stirring using a magnetic bar. The suspension was subsequently returned to ambient temperature (25° C.). After 24 hours the suspension was centrifuged in order to remove the undissolved DHEA crystals. The supernatant was taken and checked for the absence of DHEA crystals by cross-polarized light microscopy. This supernatant was subsequently analysed by HPLC. The amount of DHEA detected is taken to correspond to its maximum solubility in the solvent in question.

human keratinocytes = conditions: cited from earlier work
skin = conditions: rat; cited from earlier work
fibroblast = conditions: cited from earlier work

| SMILES | DHEA solubility ([1]; solvent Dipropylene glycol) | DHEA solubility ([1]; solvent Glycerol) | DHEA solubility ([1]; solvent PEG-400) | DHEA solubility ([1]; solvent Propylene glycol) | DHEA solubility ([1]; solvent Sorbitol) | viability of human keratinocytes (human keratinocytes) | elastin content and collagen content of the skin (skin) | thickness of the dermis (skin) | fibroblast proliferation (fibroblast) |
| --- | --- | --- | --- | --- | --- | --- | --- | --- | --- |
| C[C@]12CC[C@H](O)CC1=CC[C@@H]1[C@@H]2CC[C@]2(C)C(=O)CC[C@@H]12 [DHEA, dehydroepiandrosterone] | 10.48% by weight | 0.15% by weight | 3.67% by weight | 5.88% by weight | 0.05% by weight | – | – | – | – |
| C[C@]12CC[C@H](O)CC1=C[C@@H](O)[C@@H]1[C@@H]2CC[C@]2(C)C(=O)CC[C@@H]12 [7α-hydroxy-DHEA] | – | – | – | – | – | increase | increases | increases | increase |
